Results from patent publication US20080176862A1, “New Compounds 617” (ASTRAZENECA AB, priority 2006, published 2008).
Where a name gives a salt, the structure may show the parent alone.

biological target: T1, human β-Secretase (soluble part, AA1-AA460; sBACE-Fc) (Homo sapiens, UniProt P56817); test: TR-FRET assay; assay type: biochemical; conditions: substrate (Europium)CEVNLDAEFK(Qsy7) 100 nM, pH 4.5, 15 min at RT; read-out: IC50 (nM) in TR-FRET assay
T1 construct: The soluble part of the human β-Secretase (AA1-AA460) was cloned into the ASP2-Fc10-1-IRES-GFP-neoK mammalian expression vector; made in house
T1 sequence (P56817 22-460): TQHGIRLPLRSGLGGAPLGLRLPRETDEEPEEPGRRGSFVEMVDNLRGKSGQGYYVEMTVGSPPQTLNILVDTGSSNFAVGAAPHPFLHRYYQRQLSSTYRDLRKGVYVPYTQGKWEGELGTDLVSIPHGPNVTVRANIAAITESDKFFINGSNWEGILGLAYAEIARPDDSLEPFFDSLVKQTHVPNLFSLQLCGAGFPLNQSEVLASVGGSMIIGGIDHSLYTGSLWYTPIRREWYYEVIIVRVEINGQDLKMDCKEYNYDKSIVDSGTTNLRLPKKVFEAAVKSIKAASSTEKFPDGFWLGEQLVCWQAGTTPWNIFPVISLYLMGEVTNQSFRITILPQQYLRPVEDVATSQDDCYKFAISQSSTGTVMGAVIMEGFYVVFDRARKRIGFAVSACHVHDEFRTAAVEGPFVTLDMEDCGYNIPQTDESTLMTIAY
Method: The enzyme used in the IGEN Cleavage-, Fluorescent-, TR-FRET- and BiaCore assays is described as follows:
The soluble part of the human β-Secretase (AA1-AA460) was cloned into the ASP2-Fc10-1-IRES-GFP-neoK mammalian expression vector. The gene was fused to the Fc domain of IgG1 (affinity tag) and stably cloned into HEK 293 cells. Purified sBACE-Fc is stored in Tris buffer, pH 9.2 and has a purity of 95%.
Enzyme was diluted to 6 μg/mL and the substrate (Europium)[…](Qsy7) to 200 nM in reaction buffer (NaAcetate, chaps, triton x-100, EDTA pH 4.5). Compounds were diluted to the desired concentration in dimethyl sulfoxide (final dimethyl sulfoxide concentration in assay is 5%). […] Enzyme (9 μL) and 1 μL of compound in dimethyl sulfoxide was added to the plate, mixed and pre-incubated for 10 min. Substrate (10 μL) was added and the reaction proceeded in the dark for 15 min at RT. The reaction was stopped with the addition of 7 μL NaAcetate, pH 9. The fluorescence of the product was measured on a Victor II plate reader with an excitation wavelength of 340 nm and an emission wavelength of 615 nm. […] The dimethyl sulfoxide control defined the 100% activity level and 0% activity was defined by exclusion of the enzyme (using reaction buffer instead).

Structure (SMILES) | IC50 [nM]
COc1ccnc(-c2cc(C3(c4ccc(OS(C)(=O)=O)cc4)N=C(N)N(C)C3=O)ccc2F)c1 (centres unmarked) [Example 301, 4-{2-Amino-4-[4-fluoro-3-(4-methoxypyridin-2-yl)phenyl]-1-methyl-5-oxo-4,5-dihydro-1H-imidazol-4-yl}phenyl methanesulfonate 0.75 acetate] | 53
COc1ccc(F)c(-c2cncc(C3(c4ccc(OS(C)(=O)=O)cc4)N=C(N)N(C)C3=O)c2)c1 (centres unmarked) [Example 21, 4-{2-Amino-4-[5-(2-fluoro-5-methoxyphenyl)pyridin-3-yl]-1-methyl-5-oxo-4,5-dihydro-1H-imidazol-4-yl}phenyl methanesulfonate 0.5 acetate] | 1910
CCCS(=O)(=O)Oc1cccc(C2(c3ccc(F)c(-c4cc(Cl)cnc4F)c3)N=C(N)N(C)C2=O)c1 (centres unmarked) [Example 95, 3-{2-Amino-4-[3-(5-chloro-2-fluoropyridin-3-yl)-4-fluorophenyl]-1-methyl-5-oxo-4,5-dihydro-1H-imidazol-4-yl}phenyl propane-1-sulfonate] | 352
Cc1nn(C)c(Cl)c1S(=O)(=O)Oc1cccc(C2(c3ccc(F)c(Br)c3)N=C(N)N(C)C2=O)c1 (centres unmarked) [Example 230, 3-[2-Amino-4-(3-bromo-4-fluorophenyl)-1-methyl-5-oxo-4,5-dihydro-1H-imidazol-4-yl]phenyl 5-chloro-1,3-dimethyl-1H-pyrazole-4-sulfonate] | 129
CN1C(=O)C(c2cccc(OS(=O)(=O)c3c(F)cccc3F)c2)(c2ccc(F)c(-c3cncnc3)c2)N=C1N (centres unmarked) [Example 236, 3-[2-Amino-4-(4-fluoro-3-pyrimidin-5-ylphenyl)-1-methyl-5-oxo-4,5-dihydro-1H-imidazol-4-yl]phenyl 2,6-difluorobenzenesulfonate] | 65
CC(C)S(=O)(=O)Oc1cccc(C2(c3ccc(F)c(-c4cc(Cl)cc(Cl)c4)c3)N=C(N)N(C)C2=O)c1 (centres unmarked) [Example 109, 3-[2-Amino-4-(3′,5′-dichloro-6-fluorobiphenyl-3-yl)-1-methyl-5-oxo-4,5-dihydro-1H-imidazol-4-yl]phenyl propane-2-sulfonate] | 263
CN1C(=O)C(c2ccc(OS(C)(=O)=O)cc2)(c2ccc(F)c(-c3cncs3)c2)N=C1N (centres unmarked) [Example 188, 4-{2-Amino-4-[4-fluoro-3-(1,3-thiazol-5-yl)phenyl]-1-methyl-5-oxo-4,5-dihydro-1H-imidazol-4-yl}phenyl methanesulfonate hydrochloride] | 379
CN1C(=O)C(c2cccc(OS(=O)(=O)c3ccc4c(c3)oc(=O)n4C)c2)(c2ccc(F)c(Br)c2)N=C1N (centres unmarked) [Example 229, 3-[2-Amino-4-(3-bromo-4-fluorophenyl)-1-methyl-5-oxo-4,5-dihydro-1H-imidazol-4-yl]phenyl 3-methyl-2-oxo-2,3-dihydro-1,3-benzoxazole-6-sulfonate] | 299
COc1cc(OS(C)(=O)=O)cc(-c2cccc(C3(c4cc(C)nc(C)c4)N=C(N)N(C)C3=O)c2)c1 (centres unmarked) [Example 305, 3′-(2-Amino-4-(2,6-dimethylpyridin-4-yl)-1-methyl-5-oxo-4,5-dihydro-1H-imidazo-4-yl)-5-methoxybiphenyl-3-yl methanesulfonate hydrochloride] | 101
CN1C(=O)C(c2cccc(OS(C)(=O)=O)c2)(c2ccc(F)c(-c3cc(Cl)cnc3F)c2)N=C1N (centres unmarked) [Example 86, 3-{2-Amino-4-[3-(5-chloro-2-fluoropyridin-3-yl)-4-fluorophenyl]-1-methyl-5-oxo-4,5-dihydro-1H-imidazol-4-yl}phenyl methanesulfonate] | 292
CN1C(=O)C(c2ccc(OS(C)(=O)=O)cc2)(c2ccc(F)c(/C=C/C3CC3)c2)N=C1N (centres unmarked) [Example 78, 4-(2-Amino-4-{3-[(E)-2-cyclopropylvinyl]-4-fluorophenyl}-1-methyl-5-oxo-4,5-dihydro-1H-imidazol-4-yl)phenyl methanesulfonate] | 725
